This passage reports IC50 results from PubChem BioAssay AID1645868 (Buhrlage Lab, Dana-Farber Cancer Institute and Novartis …, 2021).

Active and inactive are the calls of the source.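 The calls were made as follows: active = maximal percent inhibition of the deubiquitinase OTUD3 of at least 30% across the tested doses; inactive = the rest.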

The target in this experiment is OTU domain-containing protein 3 (Homo sapiens) (UniProt Q5T2D3). The experiment in a line: Validation of screening hits, potency titration, in vitro enzymatic, OTU domain-containing protein 3 DUB inhibitors (AID 1645868). The conditions noted are these: purified OTUD3, ubiquitin-rhodamine cleavage fluorescence, 2 h.
Sequence of OTU domain-containing protein 3 (Homo sapiens) (Q5T2D3 whole entry, looked up, the tested form may be a part): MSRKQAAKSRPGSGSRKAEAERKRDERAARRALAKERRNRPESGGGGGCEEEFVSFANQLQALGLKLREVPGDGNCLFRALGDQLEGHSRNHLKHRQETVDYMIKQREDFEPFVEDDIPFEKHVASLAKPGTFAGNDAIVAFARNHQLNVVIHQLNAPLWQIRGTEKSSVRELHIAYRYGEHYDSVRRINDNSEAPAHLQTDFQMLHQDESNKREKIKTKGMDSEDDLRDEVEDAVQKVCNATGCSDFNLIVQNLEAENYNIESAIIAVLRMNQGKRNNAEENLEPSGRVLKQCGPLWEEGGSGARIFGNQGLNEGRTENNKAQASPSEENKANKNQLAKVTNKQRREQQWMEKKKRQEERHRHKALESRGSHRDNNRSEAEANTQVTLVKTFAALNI
As to `O=C(COc1cccc(-n2cnnn2)c1)Nc1ccc2c(c1)OCCO2`, the IC50 was > 50 µM (inactive).

In the case of `CCc1nc(-c2cc(C(=O)N3CCOCC3)c3ccccn23)cs1`, the IC50 was > 50 µM (inactive).

Consider `CC1CCc2c(sc3nc(CC#N)[nH]c(=O)c23)C1` (configuration not stated), for which the IC50 is > 50 µM (inactive).

On to `COc1ccc(-n2c(SCC(=O)c3ccc(F)cc3)nnc2-c2cccnc2)cc1`, for which the IC50 is 26.8 µM.

In the case of `CCn1cc(-c2nc(-c3ccccc3)no2)c(=O)c2cc(F)ccc21`, the half-maximal inhibitory concentration (IC50) is 18 µM.

On to `Cn1c2ccccc2c(=O)c2c(=O)n(Cc3ccccc3)c(-c3ccco3)nc21`, for which the half-inhibitory concentration (IC50) was 1.55 µM.

Take `Cc1cc(C)nc(-n2nc(C)c3c2NC(=O)CSC3c2ccc(F)cc2F)n1` (configuration not stated): the IC50 is 47.2 µM.

Regarding `COc1cc(-c2cc(C(=O)Nc3cc(C)[nH]n3)c3ccccc3n2)cc(OC)c1OC`, the IC50 is > 50 µM (inactive).

In the case of `Cc1ccc2cccc(OCc3nnc(SCC(=O)c4ccc(Cl)cc4)n3C)c2n1`, the IC50 was 25.8 µM.

For the molecule `Cn1nc(-c2nc(-c3ccccc3)no2)c2c1CCN(C(=O)C1CC1)C2`, the IC50 is > 50 µM (inactive).

As to `COc1ccc(-c2nc(C)c(C(=O)NCc3ccc(S(N)(=O)=O)cc3)s2)cc1`, the IC50 was > 50 µM (inactive).

For the molecule `Cc1c(Cl)cccc1NC(=O)Cn1ccc2ccccc2c1=O`, the IC50 is > 50 µM (inactive).

On to `O=C(Nc1ccc2c(c1)OCCO2)C1CCN(C(=O)c2ccccc2)CC1`, for which the IC50 is > 50 µM (inactive).

For `O=C(CC1C(=O)N(Cc2cccnc2)c2nc3ccccc3n21)Nc1cccc2ccccc12` (configuration not stated), the IC50 was > 50 µM (inactive).

Take `CC1CCN(S(=O)(=O)c2ccc3[nH]cc(C(=O)NCc4ccco4)c(=O)c3c2)CC1`: the IC50 is > 50 µM (inactive).

On to `Cc1ccc2cc(CCNC(=O)c3cccc(Br)c3)c(=O)[nH]c2c1`, for which the IC50 is > 50 µM (inactive).

Turning to `COc1cccc(CN2CCc3nc4nc(C)ccc4cc3C2)c1`, the IC50 is > 50 µM (inactive).

`O=C(Nc1ccc2c(c1)OCCO2)c1ccc(N2CCCC2=O)cc1`: the IC50 was > 50 µM (inactive).

Take `Cc1c(C(=O)c2ccccc2)c2ccccn2c1CCc1ccccn1`: the IC50 was > 50 µM (inactive).

As to `Cc1cc(SCc2ncon2)c(C)cc1Cl`, the IC50 is > 50 µM (inactive).

On to `COc1ccc(CN2C[C@@H]3C[C@]3(c3ccccc3)C(=O)c3ncccc32)cc1`, for which the IC50 is > 50 µM (inactive).

Regarding `COc1cc2c(cc1NC(=O)c1ccc(-n3cnnn3)cc1)oc1ccccc12`, the IC50 is > 50 µM (inactive).

For `O=C1COc2ccc(NC(=O)c3cnn(Cc4ccccc4)c3)cc2N1`, the IC50 was > 50 µM (inactive).

Regarding `Cc1c(C)n(-c2ccc(Br)cn2)c2ncnc(NCCCO)c12`, the IC50 was > 50 µM (inactive).

For `Cc1cc(C)c2cc(CN(CCc3ccccc3)C(=O)Nc3ccccc3)c(=O)[nH]c2c1`, the IC50 is > 50 µM (inactive).

On to `O=C(O)CCCCCN1C(=O)CC(c2ccc(Cl)cc2)CC1=O`, for which the half-maximal inhibitory concentration (IC50) is 46.9 µM.

For the molecule `CC(=O)c1cccc(NC(=O)c2ccc(CN(c3ccc(C)c(C)c3)S(C)(=O)=O)cc2)c1`, the IC50 was > 50 µM (inactive).

As to `COc1cc2c(oc(=O)c3cc(C)cc(OC)c32)c2c([C@@H]3OC(C)[C@@H](O)[C@@](C)(O)C3O)ccc(O)c12` (some centres not stated), the IC50 was > 50 µM (inactive).

For `Cc1cccc(S(=O)(=O)N2CCc3nc4ccccc4n3CC2)c1`, the IC50 is 36.5 µM.

Turning to `C=Cc1ccc(Cn2cc(S(=O)(=O)N3CCOCC3)ccc2=O)cc1`, the IC50 was > 50 µM (inactive).

Consider `COc1ccc(COC(=O)C2=C(C)NC(=O)CC2c2cccc([N+](=O)[O-])c2)cc1` (configuration not stated), for which the IC50 was > 50 µM (inactive).

Regarding `Cc1cc(C)cc(NC(=O)CSc2ccc(-c3ccncc3)nn2)c1`, the IC50 is > 50 µM (inactive).

Take `COc1ccc(C(=O)Nc2ccc3c(c2)C(=O)N(C)c2ccccc2O3)cc1`: the IC50 was > 50 µM (inactive).

On to `Cc1ccc(NC2=NC(c3ccco3)n3c(nc(C)cc3=O)N2)c(C)c1` (configuration not stated), for which the IC50 is > 50 µM (inactive).

Consider `Cc1c(-c2ccc(C#N)cc2)oc2ccc(Br)cc2c1=O`, for which the IC50 was > 50 µM (inactive).

Consider `c1ccc2c(Cc3nc(-c4ccncc4)no3)cccc2c1`, for which the IC50 was > 50 µM (inactive).

Take `CC(OC(=O)c1ccc2c(c1)OCCO2)C(=O)NCC1CCCCC1` (configuration not stated): the IC50 was 34.2 µM.

As to `COc1ccc(Cl)cc1N1C(=O)[C@H]2[C@@H](C1=O)[C@]1(C(=O)Nc3c(C)cc(C)cc31)N1CCC[C@@H]21`, the IC50 was > 50 µM (inactive).

Turning to `Cc1ccccc1Cn1ccc(NC(=O)c2noc(C)c2[N+](=O)[O-])n1`, the IC50 was > 50 µM (inactive).

Consider `O=C(COC(=O)c1cc(Cl)c2c(c1)OCO2)Nc1ccc2[nH]c(=O)[nH]c2c1`, for which the IC50 was > 50 µM (inactive).

Regarding `O=C(COC(=O)c1ccc(Cl)cc1)Nc1ccc2[nH]c(=O)[nH]c2c1`, the IC50 was 12.7 µM.

For the molecule `Cc1ccc(S(=O)(=O)NCC(=O)OC(C(=O)Nc2cc(C)ccc2C)c2ccccc2)cc1` (configuration not stated), the IC50 was > 50 µM (inactive).

Regarding `Cc1ccn(-c2ccc(NC(=O)c3ccccc3Sc3ccccc3C#N)cc2)n1`, the IC50 is 44.5 µM.

Take `CCC(CC)n1[nH]c(=O)c2c1NC(=O)CSC2c1ccc2c(c1)OCO2` (configuration not stated): the IC50 was 19.3 µM.

With `COc1ccc(NC(=O)Nc2cccc(-c3nnc(-c4ccccc4)o3)c2)cc1OC`, the IC50 was 39.3 µM.

Consider `O=C(Cn1c(=O)n(CCC(=O)N2CC=C(c3ccccc3)CC2)c(=O)c2ccccc21)NCc1ccco1`, for which the IC50 was > 50 µM (inactive).

`COc1cccc2c1OCC(C(=O)NCc1ccc(F)cc1)=C2`: the IC50 is > 50 µM (inactive).

For `Oc1ccc(Br)cc1CNc1ccc(F)cc1`, the IC50 was > 50 µM (inactive).

With `Nc1ccccc1SC(CC(=O)c1ccc(Cl)cc1)c1ccsc1` (configuration not stated), the IC50 was > 50 µM (inactive).

Regarding `CCN1C[C@@H]2C[C@]2(c2ccccc2OC)C(=O)c2ncccc21`, the IC50 was > 50 µM (inactive).

In the case of `Fc1ccc(Oc2nc(CN3CCOCC3)nc3sc4c(c23)CCCC4)c(Cl)c1`, the IC50 is > 50 µM (inactive).

On to `O=C1CC(c2cc3c(cc2Br)OCO3)c2cc3c(cc2N1)OCCO3` (configuration not stated), for which the IC50 was 18.7 µM.

Take `CCC(=O)OCc1cnc(C)c2oc(=O)c(-c3nc(-c4ccccc4)no3)cc12`: the IC50 was > 50 µM (inactive).

As to `COc1ccccc1-c1nc2c3c(ncn2n1)Oc1c(c(C)nn1-c1ccccc1)C3c1cccnc1` (configuration not stated), the IC50 was > 50 µM (inactive).

As for `O=C(COc1nc2ccccc2nc1N1CCOCC1)Nc1cccc(S(=O)(=O)N2CCCCC2)c1`, the IC50 was > 50 µM (inactive).

Consider `O=c1[nH]c2ccccc2cc1CN(Cc1ccco1)S(=O)(=O)c1ccc(F)cc1`, for which the IC50 was > 50 µM (inactive).

Consider `CCCC(=O)Nc1nc2ccc(CCC(=O)NCc3ccc(F)cc3)cc2s1`, for which the IC50 was 35.6 µM.

With `COc1ccc(CNc2nn3c(-c4cncc(OC)c4)cnc3s2)cc1`, the IC50 was > 50 µM (inactive).

For the molecule `O=C(Nc1cc(F)ccc1F)c1ccn(COc2ccc(F)c(Cl)c2)n1`, the IC50 is > 50 µM (inactive).

As to `COc1ccc(-c2nc(SCC(=O)Nc3ccc(Cl)cc3F)n[nH]2)cc1`, the IC50 was > 50 µM (inactive).

On to `Cc1cc(C#N)c2c(C)ccc(C(C)C)cc1-2`, for which the IC50 is > 50 µM (inactive).

As for `COc1cnc(-c2ccccn2)nc1Sc1ccc(C)cc1`, the IC50 is > 50 µM (inactive).

In general, IC50 refers to the concentration needed to halve the response being measured.
